Test results: ChEMBL document CHEMBL3853285, “Naturally Occurring Carbazole Alkaloids from Murraya koenigii as Potential Antidiabetic Agents” (J Nat Prod, 2016)
Calls of active or inactive are those of the source. No cut-off for these calls is given here.

What was measured:
Mus musculus [1] = assay: Reversal of insulin resistance in leptin receptor deficient db/db C57BL/KSJ mouse assessed as decrease in serum insulin level administered for 15 consecutive days relative to control; type: functional
Mus musculus [2] = assay: Antidiabetic activity in overnight fasted leptin receptor deficient db/db C57BL/KSJ mouse assessed as reduction in postprandial blood glucose AUC at 10 mg/kg, po administered on day 15 post glucose challenge measured up to 120 mins by oral glucose tolerance test relative to control; type: functional
Mus musculus [3] = assay: Antidiabetic activity in leptin receptor deficient db/db C57BL/KSJ mouse assessed as decrease in postprandial blood glucose level at 10 mg/kg, po for 15 consecutive days measured on day 7 to 14 post dose; type: functional, organism-based
Mus musculus [4] = assay: Reversal of insulin resistance in leptin receptor deficient db/db C57BL/KSJ mouse assessed as improvement in HOMA index administered for 15 consecutive days relative to control; type: functional
Mus musculus [5] = assay: Antidiabetic activity in leptin receptor deficient db/db C57BL/KSJ mouse assessed as decrease in fasting blood glucose level administered for 15 consecutive days relative to control; type: functional
Mus musculus [6] = assay: Antidiabetic activity in overnight fasted leptin receptor deficient db/db C57BL/KSJ mouse assessed as reduction in postprandial blood glucose AUC at 10 mg/kg, po administered on day 10 post glucose challenge measured up to 120 mins by oral glucose tolerance test relative to control; type: functional
[7] = Metabolic stability in rat liver microsomes assessed as drug degradation rate constant incubated for 90 mins by HPLC analysis; type: ADME; conditions: 1.5 h
[8] = Cmax in Sprague-Dawley rat plasma at 100 mg/kg, po administered as single dose measured up to 48 hrs post dose by LC-MS/MS analysis; type: ADME, organism-based; parameters: dose 100 mg/kg, route oral
[9] = Activation of Akt-dependent signalling pathway in rat L6 myotubes assessed as increase in myc-tagged GLUT4-mediated 2-[3H]-deoxyglucose uptake at 25 uM incubated for 16 hrs measured for 5 mins by beta scintillation counting relative to control
[10] = Activation of Akt-dependent signalling pathway in rat L6 myotubes assessed as induction of myc-tagged GLUT4 translocation to cell surface at 25 uM incubated for 16 hrs by O-phenylenediamide based colorimetric assay relative to control
Rattus norvegicus [11] = assay: Antidiabetic activity in overnight fasted STZ-induced albino Sprague-Dawley rat diabetic model assessed as decrease in blood glucose level at 100 mg/kg, po measured up to 24 hrs; type: functional
[12] = AUC (0 to infinity) in Sprague-Dawley rat plasma at 100 mg/kg, po administered as single dose measured up to 48 hrs post dose by LC-MS/MS analysis; type: ADME, organism-based; parameters: dose 100 mg/kg, route oral, time infinity
[13] = Activation of Akt-dependent signalling pathway in rat L6 myotubes assessed as increase in insulin-stimulated myc-tagged GLUT4-mediated 2-[3H]-deoxyglucose uptake at 25 uM incubated for 16 hrs followed by insulin stimulation for 20 mins measured for 5 mins by beta scintillation counting method relative to control
[14] = Metabolic stability in rat liver microsomes assessed as parent compound remaining after 90 mins in presence of NADPH by HPLC analysis; type: ADME; conditions: for remaining at 1.5 h: liver microsomes, read-out: Stability
[15] = Activation of Akt-dependent signalling pathway in rat L6 myotubes assessed as increase in myc-tagged GLUT4-mediated 2-[3H]-deoxyglucose uptake incubated for 16 hrs measured for 5 mins by beta scintillation counting
[16] = Half life in rat liver microsomes in presence of NADPH by HPLC analysis; type: ADME; conditions: for half-life: liver microsomes
[17] = Tmax in Sprague-Dawley rat plasma at 100 mg/kg, po administered as single dose by LC-MS/MS analysis; type: ADME, organism-based
Rattus norvegicus [18] = assay: Antidiabetic activity in overnight fasted STZ-induced albino Sprague-Dawley rat diabetic model assessed as decrease in blood glucose level at 100 mg/kg, po measured up to 5 hrs; type: functional
[19] = Activation of Akt-dependent signaling pathway in rat L6 myotubes assessed as increase in myc-tagged GLUT4-mediated 2-[3H]-deoxyglucose uptake at 10 uM incubated for 16 hrs measured for 5 mins by beta scintillation counting method relative to control
[20] = Activation of Akt-dependent signalling pathway in rat L6 myotubes assessed as induction of myc-tagged GLUT4 translocation to cell surface at 10 uM incubated for 16 hrs by O-phenylenediamide based colorimetric assay relative to control
Mus musculus [21] = assay: Antidiabetic activity in leptin receptor deficient db/db C57BL/KSJ mouse assessed as decrease in postprandial blood glucose level at 30 mg/kg, po for 15 consecutive days measured on day 8 post dose; type: functional, organism-based
Rattus norvegicus [22] = organism: Rattus norvegicus; assay: Induction of Akt phosphorylation at Ser-473 residue in rat L6 myotubes over-expressing myc-tagged GLUT4 at 25 uM incubated for 16 hrs by Western blot analysis
Mus musculus [23] = assay: Antidiabetic activity in overnight fasted leptin receptor deficient db/db C57BL/KSJ mouse assessed as reduction in postprandial blood glucose AUC at 30 mg/kg, po administered on day 10 post glucose challenge measured up to 120 mins by oral glucose tolerance test relative to control; type: functional
Rattus norvegicus [24] = organism: Rattus norvegicus; assay: Induction of Akt phosphorylation at Ser-473 residue in rat L6 myotubes over-expressing myc-tagged GLUT4 at 50 uM incubated for 16 hrs followed by insulin stimulation for 20 mins by Western blot analysis
Mus musculus [25] = assay: Antidiabetic activity in overnight fasted leptin receptor deficient db/db C57BL/KSJ mouse assessed as reduction in postprandial blood glucose AUC at 30 mg/kg, po administered on day 15 post glucose challenge measured up to 120 mins by oral glucose tolerance test relative to control; type: functional

SMILES	K [7] [min⁻¹]	fold change (FC) [9]	fold change (FC) [10]	inhibition in vivo at 100 mg/kg (Rattus norvegicus [11]) [%]	fold change (FC) [13]	remaining at 1.5 h [14] [%]	Activity [15]	half-life [16] [h]	inhibition in vivo at 100 mg/kg (Rattus norvegicus [18]) [%]	further results
CCc1ccc(CCOc2ccc(CC3SC(=O)NC3=O)cc2)nc1 (configuration not stated) [PIOGLITAZONE]	–	–	–	–	–	–	–	–	–	inhibition (INH) (Mus musculus [1]): 32.3%; inhibition in vivo at 10 mg/kg (Mus musculus [2]): 41.4%; inhibition (Mus musculus [3]): Active; Activity (Mus musculus [4]): 74.6%; inhibition (INH) (Mus musculus [5]): 62.4%; inhibition in vivo at 10 mg/kg (Mus musculus [6]): 30.2%
COc1ccc2[nH]c3c4c(c(C)cc3c2c1)OC(C)(C)C=C4 [KOENIMBINE]	0.005	1.41	1.44	19.8	2.54	58	Dose-dependent effect	2.21	15.5	Cmax [8]: 1810 nM; AUC(0-inf) [12]: 9.45 µM·h; Tmax [17]: 0.83 h
CC(C)=CCC[C@]1(C)C=Cc2c(c(C)cc3c2[nH]c2ccccc23)O1	0.088	1.26	1.41	23.3	2.68	–	Dose-dependent effect	–	19.3	Stability ([14]; microsomes, 1.5 h): 61%; t1/2 ([16]; microsomes): 7.8 min
CN(C)C(=N)NC(=N)N [METFORMIN]	–	–	–	36	–	–	–	–	25.9	–
CN(CCOc1ccc(CC2SC(=O)NC2=O)cc1)c1ccccn1 (configuration not stated)	–	–	–	–	2.75	–	Dose-dependent effect	–	–	fold change (FC) [19]: 1.45; fold change (FC) [20]: 1.38
COc1cc2[nH]c3c4c(c(C)cc3c2cc1OC)OC(C)(C)C=C4	0.003	1.42	1.29	30	2.41	79	Dose-dependent effect	3.11	22.5	inhibition (Mus musculus [21]): Active; Cmax [8]: 2820 nM; Activity (Rattus norvegicus [22]): Active; inhibition (INH) (Mus musculus [1]): 17.2%; AUC(0-inf) [12]: 23 µM·h; Tmax [17]: 4 h; inhibition in vivo at 30 mg/kg (Mus musculus [23]): 21.8%; Activity (Mus musculus [4]): 44.3%; Activity (Rattus norvegicus [24]): Active; inhibition (INH) (Mus musculus [5]): 40.5%; inhibition in vivo at 30 mg/kg (Mus musculus [25]): 28.5%
COc1ccc2c(c1)[nH]c1c3c(c(C)cc12)OC(C)(C)C=C3	0.004	1.34	1.33	30.3	2.7	67	Dose-dependent effect	2.83	24.6	–
